Test results reported in paper PMC2671563 (PLoS Biology, 2009).
Where two headings read alike, the source gives them in different places.

Legend:
[1] = target: T1, human S100A9 (Homo sapiens, UniProt P06702); test: SPR: human S100A9 binding to immobilised ABR-224649 (Q compound), direct binding and displacement
T1 construct: made in house; host or cells: Escherichia coli (or purified from granulocytes)
T1 sequence (P06702 1-114): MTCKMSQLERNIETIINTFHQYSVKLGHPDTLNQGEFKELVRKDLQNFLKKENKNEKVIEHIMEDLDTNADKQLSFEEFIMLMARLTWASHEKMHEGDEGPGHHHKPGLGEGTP
Description: (§1) The SPR analysis was carried out with the Biacore 3000 system (GE Healthcare). Sensor chips, amine coupling kit, immobilization and running buffers, and regeneration solutions were obtained from GE Healthcare. Working solutions of all reagents used for Biacore analysis were prepared in 0.01 M Hepes, 0.15 M NaCl (pH 7.4) containing 0.005% v/v Surfactant P-20 (HBS-P; GE Healthcare) by buffer exchange on Fast Protein Desalting Micro-Spin Columns from Pierce. ABR-215757 was immobilised onto a CM5 chip through an amino-linker (ABR-224649). […] Activity of ligands after immobilisation was tested by injecting specific antibodies (unpublished data). In some experiments, S100A9 was immobilized either by random amine coupling or with a known orientation (i.e., by sulhydryl group conjugation to the only cysteine in S100A9 at position 3).
(§2) Binding to the various surfaces was performed by injecting the analyte at a flow rate of 30 μl/min in a physiological buffer (HBS-P) containing 1 mM Ca^2+ and 10 μM Zn^2+ as proposed for S100A8/9 by Robinson et al.. A typical analysis cycle consists of: (1) pumping running buffer for 1 min to obtain a stable baseline; (2) injection of sample for an appropriate period of time (association); (3) pumping running buffer for 2.5 min (dissociation); (4) injection of a short pulse (30 s) of 15 μl 10 mM glycine-HCl (pH 2.0) (regeneration); and (5) pumping running buffer for 2 min (stabilisation after regeneration) at a flow rate of 30 μl/min. […] In one experiment, S100A9 was injected into a buffer with a fixed Ca^2+ concentration (1 mM) and Zn^2+ in the range 0–50 μM. In a second experiment, Ca^2+ was varied from 0–2 mM at a fixed Zn^2+ concentration (10 μM). In subsequent analyses, regeneration was carried out under more mild conditions, i.e., by injecting 30 μl of HBS-P containing 3 mM EDTA (HBS-EP; GE Healthcare) for 60 s, to prolong the lifespan of the chip.
(§3) Compounds were also injected over the immobilised surfaces in the absence of S100A9 to exclude, or make possible correction for, any direct binding of compound to the surface.
(§4) Evaluation was carried out using BIAevaluation Software version 3.2 (GE Healthcare). The response at steady-state was obtained by fit of sensorgrams to standard binding models, where appropriate, or calculated as responses at late association or early dissociation phase using the Steady state affinity function in BIAevaluation. Affinity was determined from kinetic analysis (on- and off-rates) or as the apparent affinity after plotting responses versus concentration of analyte in a saturation curve. In the inhibition assay format, the competitor concentration yielding 50% inhibition (IC50) was calculated by fitting data to a one-site competition model in GraphPad Prism.

[2] = target: T2, human S100A9 binding to human RAGE (Homo sapiens, UniProt P06702); test: SPR: inhibition of human S100A9 binding to immobilised human RAGE
T2 construct: purchased R&D Systems (RAGE/Fc); S100A9 made in house
T2 sequence (P06702 1-114): T1 sequence (P06702 1-114)
Description: as §1, §2, §3, §4

[3] = target: T3, human S100A9 binding to human TLR4/MD2 (Homo sapiens, UniProt P06702); test: SPR: inhibition of human S100A9 binding to immobilised human TLR4/MD2; conditions: for inhibition of hS100A9 binding to immobilised hTLR4/MD2: 100 nM hS100A9
T3 construct: purchased R&D Systems (TLR4/MD-2 complex); S100A9 made in house
T3 sequence (P06702 1-114): T1 sequence (P06702 1-114)
Description: as §1, §2, §3, §4

[4] = target: T4, hS100A9 (Homo sapiens, UniProt P06702); test: SPR: analytes injected over immobilised hS100A9; type: binding; conditions: 100 nM analyte, 1:1 model with mass transfer; read-out: KD, binding to immobilised hS100A9
T4 construct: made in house; host or cells: Escherichia coli (or purified from granulocytes)
T4 sequence (P06702 1-114): T1 sequence (P06702 1-114)
Description: as §1
(B) Left: 100 nM TLR4/MD2 or MD2 injected over amino-coupled hS100A9. […] Fab 43/8 was injected at 50–200 nM to verify activity of immobilized hS100A9 (right). […] (482 KB PDF) Click here for additional data file.

[5] = target: T5, mS100A9 (Mus musculus, UniProt P31725); test: SPR: inhibition of mouse S100A9 binding to immobilised ABR-224649; conditions: Table S1
T5 construct: made in house; host or cells: Escherichia coli (or purified from granulocytes)
T5 sequence (P31725 1-113): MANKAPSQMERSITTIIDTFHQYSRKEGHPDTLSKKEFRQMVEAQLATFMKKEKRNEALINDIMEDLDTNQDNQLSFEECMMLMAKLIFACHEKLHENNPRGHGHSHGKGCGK
Description: as §1, §2, §3, §4

[6] = target: T6, mS100A9 and mRAGE/hFc (Mus musculus, UniProt P31725); test: SPR: inhibition of mouse S100A9 binding to immobilised mouse RAGE
T6 construct: purchased R&D Systems (mRAGE/Fc); S100A9 made in house
T6 sequence (P31725 2-113 limits assumed): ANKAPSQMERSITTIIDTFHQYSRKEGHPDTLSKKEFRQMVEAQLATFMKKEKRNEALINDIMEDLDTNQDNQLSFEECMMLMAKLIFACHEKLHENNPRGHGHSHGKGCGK
Description: as §1, §2, §3, §4

[7] = target: T7, mS100A9 and mLPS-Trap (Mus musculus, UniProt P31725); test: SPR: inhibition of mouse S100A9 binding to immobilised mouse TLR4/MD2 fusion protein (mLPS-Trap)
T7 sequence (P31725 2-113 limits assumed): T6 sequence (P31725 2-113 limits assumed)
Description: as §1, §2, §3, §4

[8] = target: T8, mS100A8/A9 and mRAGE (Mus musculus, UniProt P31725); test: SPR: inhibition of mouse S100A8/A9 binding to mouse RAGE; conditions: Table S1
T8 construct: purchased R&D Systems (mRAGE/Fc); S100A8/A9 made in house
T8 sequence (P31725 2-113 limits assumed): T6 sequence (P31725 2-113 limits assumed)
T8 sequence (P27005 2-89 partner limits assumed): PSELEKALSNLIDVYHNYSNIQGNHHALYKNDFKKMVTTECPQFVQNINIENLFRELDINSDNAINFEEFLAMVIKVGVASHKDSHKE
Description: as §1, §2, §3, §4

[9] = target: T9, mS100A8/A9 and mLPS-Trap (Mus musculus, UniProt P31725); test: SPR: inhibition of mouse S100A8/A9 binding to mLPS-Trap; conditions: Table S1; read-out: S100A8-9 binding IC50, mS100A8/A9 TLR4
T9 sequence (P31725 2-113 limits assumed): T6 sequence (P31725 2-113 limits assumed)
Description: as §1, §2, §3, §4

[10] = test system: aEAE development in SLJ/N mice; test: acute experimental autoimmune encephalomyelitis (aEAE) in mice; type: in vivo, mouse; conditions: Mus musculus, read-out: aEAE Inhibition ED50
From the text: A training set of five quinoline derivatives with structural diversification performed at position 5 of the quinoline ring system was used for the SAR. PCA was used to uncover any relationship between the binding activities of the quinoline derivatives at the S100 proteins and the inhibitory effect of these derivatives in the aEAE model. PLS was then used to model the relationship between the physiochemical descriptors used to characterize the compounds and their biological responses. […] All variables were mean centred and scaled to unit variance.

[11] = test system: serum TNFα after LPS challenge; test: LPS-induced systemic TNFα production in C57BL/6 mice; type: in vivo, mouse
Description: TNFα induction after intraperitoneal challenge with LPS was performed essentially as described. In brief, mice were pretreated for 2 h with 10 mg/kg ABR-215757 or PBS, after which 3 or 6 μg of LPS was injected intraperitoneally. After an additional 90 min, the animals were sacrificed, and the level of TNFα in blood was determined using commercial TNFα antibodies (eBioscience; http://www.ebioscience.com).

[12] = target: T10, human RAGE (Homo sapiens, UniProt Q15109); test: SPR: direct binding to immobilised human RAGE; conditions: unpublished data
T10 construct: purchased R&D Systems
T10 sequence (Q15109 23-342 limits assumed): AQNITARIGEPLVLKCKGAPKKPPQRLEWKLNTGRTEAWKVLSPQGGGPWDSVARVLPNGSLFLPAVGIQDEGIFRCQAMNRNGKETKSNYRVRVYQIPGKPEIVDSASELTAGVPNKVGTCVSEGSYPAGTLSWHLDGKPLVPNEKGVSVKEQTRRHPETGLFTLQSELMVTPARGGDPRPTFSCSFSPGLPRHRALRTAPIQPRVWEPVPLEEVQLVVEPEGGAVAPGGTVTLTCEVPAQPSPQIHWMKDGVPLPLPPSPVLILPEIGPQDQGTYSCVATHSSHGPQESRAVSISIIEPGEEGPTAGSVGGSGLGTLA
Description: as §1, with “3). […]” for “3).”
(§5) Evaluation was carried out using BIAevaluation Software version 3.2 (GE Healthcare). The response at steady-state was obtained by fit of sensorgrams to standard binding models, where appropriate, or calculated as responses at late association or early dissociation phase using the Steady state affinity function in BIAevaluation. Affinity was determined from kinetic analysis (on- and off-rates) or as the apparent affinity after plotting responses versus concentration of analyte in a saturation curve. […]

[13] = target: T11, human TLR4/MD2 (Homo sapiens, UniProt O00206+Q9Y6Y9); test: SPR: direct binding to immobilised human TLR4/MD2; conditions: unpublished data
T11 construct: purchased R&D Systems
T11 sequence (O00206 24-631 limits assumed): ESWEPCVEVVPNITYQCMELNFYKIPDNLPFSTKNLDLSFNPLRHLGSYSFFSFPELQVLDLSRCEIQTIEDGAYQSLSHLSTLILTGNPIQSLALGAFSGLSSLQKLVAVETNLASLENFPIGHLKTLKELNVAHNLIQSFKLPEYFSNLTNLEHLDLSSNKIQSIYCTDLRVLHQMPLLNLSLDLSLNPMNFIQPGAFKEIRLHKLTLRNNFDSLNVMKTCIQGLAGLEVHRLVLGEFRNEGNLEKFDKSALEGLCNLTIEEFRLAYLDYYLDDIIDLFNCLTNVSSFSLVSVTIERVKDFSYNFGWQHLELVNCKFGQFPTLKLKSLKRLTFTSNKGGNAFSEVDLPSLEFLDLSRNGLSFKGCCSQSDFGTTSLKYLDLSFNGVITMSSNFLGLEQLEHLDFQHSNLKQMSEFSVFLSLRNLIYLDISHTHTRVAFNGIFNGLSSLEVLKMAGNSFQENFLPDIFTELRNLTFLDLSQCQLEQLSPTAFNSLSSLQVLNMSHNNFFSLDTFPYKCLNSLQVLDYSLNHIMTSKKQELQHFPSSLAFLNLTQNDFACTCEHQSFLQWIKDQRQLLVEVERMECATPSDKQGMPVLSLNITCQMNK
T11 sequence (Q9Y6Y9 19-160): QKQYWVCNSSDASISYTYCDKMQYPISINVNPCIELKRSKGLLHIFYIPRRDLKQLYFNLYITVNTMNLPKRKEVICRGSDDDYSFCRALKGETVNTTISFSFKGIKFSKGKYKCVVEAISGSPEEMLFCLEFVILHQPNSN
Description: as §1, with “3). […]” for “3).”
as §5

[14] = target: T12, human S100A8 (Homo sapiens, UniProt P05109); test: SPR: human S100A8 binding to immobilised Q compound; conditions: 100 nM protein
T12 construct: made in house; host or cells: Escherichia coli or granulocytes
T12 sequence (P05109 1-93): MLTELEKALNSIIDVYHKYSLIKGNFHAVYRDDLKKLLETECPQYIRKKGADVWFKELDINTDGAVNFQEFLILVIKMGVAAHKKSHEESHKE
Description: as §1
Binding to the various surfaces was performed by injecting the analyte at a flow rate of 30 μl/min in a physiological buffer (HBS-P) containing 1 mM Ca^2+ and 10 μM Zn^2+ as proposed for S100A8/9 by Robinson et al.. […]

[15] = target: T13, human TLR4/MD-2 complex (human, UniProt O00206 24-631; Q9Y6Y9 19-160); test: SPR; 100 nM TLR4/MD2 or MD2 injected over amine-coupled hS100A9 (~5,000 RU); fit to a 1:1 model with mass transfer; conditions: both partners purified
T13 construct: Toll-like receptor 4, human; MD-2, human; Soluble recombinant complex; also called hTLR4/MD-2; hTLR4/MD2; source: bought: R&D Systems (carrier-free recombinant)
T13 sequence (O00206 24-631, chain 1 of 2): as the sequence (O00206 24-631 limits assumed) above
T13 sequence (Q9Y6Y9 19-160, chain 2 of 2): as the sequence (Q9Y6Y9 19-160) above

[16] = target: T14, recombinant human RAGE/Fc (human, UniProt Q15109 23-342); test: SPR; S100 proteins injected (100 nM, or a range of concentrations; 30 ul/min) over human RAGE/Fc immobilised by amine coupling (~3,000 RU); HBS-P pH 7.4 with 1 mM Ca2+ and 10 uM Zn2+; fit to a 1:1 model with mass transfer; half-maximal binding from responses at late association (apparent); conditions: both partners purified
T14 construct: RAGE (receptor for advanced glycation end products), human; human IgG1 Fc was used as the control for the Fc part; also called hRAGE; rhRAGE/Fc; source: bought: R&D Systems (carrier-free recombinant)
T14 sequence (Q15109 23-342): as the sequence (Q15109 23-342 limits assumed) above

[17] = target: T13, human TLR4/MD-2 complex; test: SPR; S100 proteins injected (100 nM, or a range of concentrations; 30 ul/min) over human TLR4/MD2 immobilised by amine coupling (~3,000 RU); HBS-P pH 7.4 with 1 mM Ca2+ and 10 uM Zn2+; fit to a 1:1 model with mass transfer; half-maximal binding from responses at late association (apparent); conditions: both partners purified

sTLR4/MD2: recombinant human TLR4/MD-2 complex in solution
inhibition of S100A9 interaction with immobilised Q compound by competitor in solution ([1]; injected together with S100A9): inhibit | inhibition of S100A9 interaction with immobilised RAGE by competitor in solution ([2]; injected together with S100A9): inhibit | inhibition of hS100A9 binding to immobilised hTLR4/MD2 ([3]; competitor 200 nM): 55% | inhibition of hS100A9 binding to immobilised hTLR4/MD2 ([3]; competitor 400 nM): 78% | blocking of S100A9 interaction with immobilised TLR4 by competitor in solution ([3]; injected together with S100A9): efficiently block | Kd [4]: 0.0092 µM

CCc1cccc2c1c(O)c(C(=O)N(CC)c1ccccc1)c(=O)n2C [ABR-215757]
binding of recombinant S100A9 to Q compound coupled to solid phase [1]: bound strongly | IC50 ([1]; 100 nM S100A9, competitor 7.81–1,000 μM, one-site competition model, 1 mM Ca2+ and 10 μM Zn2+): 37 µM | IC50 ([2]; S100A9 binding IC50, hS100A9 RAGE, Table S1): 60.5 µM | IC50 ([2]; competitor concentration yielding 50% inhibition of S100A9 binding to RAGE surface, 100 nM S100A9, competitor 7.81–1,000 μM, single experiment Figure 2C): 26 µM | IC50 ([3]; 100 nM S100A9, competitor 7.81 to 1,000 μM, single experiment Figure 3C, read-out: IC50, inhibition of S100A9 binding to immobilised hTLR4/MD2): 23 µM | IC50 ([3]; Table S1, read-out: S100A9 binding IC50, hS100A9 TLR4): 59.7 µM | IC50 [5]: 940 µM | competition of mouse S100A9 interaction with solid-phase mouse RAGE ([6]; 100 nM mouse S100A9): competed | IC50 ([6]; Table S1): 311 µM | competition of mouse S100A9 interaction with solid-phase mouse TLR4/MD2 ([7]; 100 nM mouse S100A9): competed | IC50 ([7]; Table S1): 698 µM | IC50 [8]: 334 µM | IC50 [9]: 334 µM | ED50 [10]: 0.04 mg/kg | TNFα production after LPS challenge ([11]; 3 μg LPS i.p., treatment 2 h before (ABR-215757 10 mg/kg)): significantly inhibited | TNFα production after LPS challenge ([11]; 6 μg LPS i.p., 10 mg/kg 2 h before): significantly inhibited | direct binding to RAGE [12]: not observed | direct binding to hTLR4/MD2 [13]: negligible | binding of S100A8 to immobilised Q compound [14]: close to baseline levels

B1: human S100A9 (natural protein, UniProt P06702 1-114, looked up)
chain: T1 sequence (P06702 1-114)
notes: S100A9, human; called homodimeric; also called hS100A9; homodimeric S100A9; source: either produced recombinantly in Escherichia coli or purified from granulocytes
Kd [15]: 0.0092 µM | Kd [16]: 0.038 µM | Kd [17]: 0.0021 µM
